From US11998595B2, “Telomerase polypeptide vaccine for treating cancer” (Ultimovacs AS, priority 2010, dated 2024)

Legend:
Format in all cases: cell-based, human
T cells (patient PBMCs) = experiment: T-cell proliferation assay (3H-thymidine) of patient PBMC/T cells with hTERT peptides or transfected DC; conditions: for response of clinical non-responders: GV1001-vaccinated
Procedure: FIG. 1 is a bar graph summarising hTERT T-cell responses detected in pancreas cancer patient vaccinated with DC transfected with hTERT mRNA. In samples from various time points throughout a vaccination schedule, T-cell responses against 24 overlapping hTERT 15-mer peptides were detected. Proliferation in response to peptide-loaded PBMC was measured by ^3H-thymidine incorporation. A stimulation index of >2 is considered an immune response.
Peripheral blood mononuclear cells (PBMCs) were obtained prior to the four standard vaccinations, after 5 weeks and after 12 weeks. PBMCs were also obtained before each monthly booster vaccination. The PBMCs were isolated and frozen as previously described (Kyte et al, 2005). Thawed PBMCs were stimulated once in vitro with tDCs (not with mockDCs) and cultured and then tested in T cell proliferation assays (^3H Thymidine) as previously described (Kyte et al 2006). The T cells were tested in triplicates. Irradiated tDCs and mock-transfected DC controls (mockDCs) were used or PBMC with or without hTERT peptide as APCs. Negative controls with T cells only were included.
PBMCs from various time points were stimulated with an overlapping hTERT 15-mer peptide library or a 30-mer hTERT peptide, all from ProImmune and then tested in proliferation assays as above using irradiated PBMCs as APCs as described in (Bernhardt et al 2006).
T-cell responses to a hTERT peptide library (including the polypeptides from Table 1) were determined for T-cells from 5 patients in addition to the patients reported in Examples 1 and 2. The methods were the same as previously described in Example 1 or in Bernhardt et al 2006. In brief, PBMCs from various time points during vaccination were stimulated with the overlapping hTERT peptide library prior to testing for specific T-cell responses in proliferation assays.
The proliferative T-cell responses of each patient to a series of peptides were then determined as explained in Example 1. The results are tabulated in Table 5 and are shown graphically in FIG. 14 in which the peptide designations are referenced in Table 6 (the results for peptides 726 and GV1001 are shown only for comparison).
Four patients who were clinical non-responders following a lung cancer diagnosis and a GV1001 (SEQ ID NO. 10) peptide vaccination were studied. These patients were all stage IV lung cancer patients vaccinated with GV1001. […] The proliferative T-cell responses of each patient to a series of peptides were determined in the same manner as in Example 1, at one time point. The peak response of each patient during the study period to peptide GV1001 is also shown which confirms that each patient responded immunologically to GV1001 vaccination.
Six patients who were clinical non-responders following a melanoma cancer diagnosis and a GV1001 peptide (SEQ ID NO. 10) vaccination were studied. These patients were all stage IV melanoma patients and included in the same GV1001 vaccination trial as melanoma patients P7 and P8 who were long term survivors (see Example 6). […] Five of the patients also experienced progressive disease and one patient, designated Melanoma P3, experienced some stabilization of the disease but still had short survival. The proliferative T-cell responses of each patient to a series of peptides were determined in the same manner as in Example 1, at one time point. The peak response of each patient during the study period to peptide GV1001 is also shown which confirms that each patient responded immunologically to GV1001 vaccination.

[1] = test system: CD8+ T cells (patient PBMCs); experiment: Pentamer staining of hTERT-specific CD8+ T cells by flow cytometry; conditions: patients of Examples 1 to 8
[2] = test system: T cells stimulated with peptide-loaded autologous EBV-LCL; experiment: Intracellular cytokine staining of peptide-stimulated T cells
CD4+ T-cell clones = experiment: Peptide-specific T-cell clones from patients (HLA class II allele, peptide titration); conditions: for Specific clones: colon cancer
Source text: A value above 2 is considered as a positive response.
T-cell clones specific for all of the peptides of 15- or 30-amino acids shown in Table 1 have also been obtained from patients. […] This is important in order to be able to induce strong immune response in vivo where peptide concentrations are lower.
In addition, the 15- and 30-mer peptides listed in Table 1 show reactivity in nearly all patients tested, which means they are promiscuous with respect to the HLA class II alleles on which they are presented and that they are applicable to nearly the whole population without any need for HLA-screening (see Table 2).

[3] = GV1001 vaccinated lung cancer patient

ALFSVLNYERARRPGLLGASVLGLDDIHRA [SEQ ID NO. 1]
T-cell response (T cells (patient PBMCs); [3]): very strong responses | reactivity in cancer patients tested (T cells (patient PBMCs); cancer patients, mostly vaccinated): reactivity in nearly all the cancer patients tested | response of clinical non-responders (T cells (patient PBMCs); four stage IV lung cancer patients): very low or no response | T-cell response compared with the vaccine peptide GV1001 (T cells (patient PBMCs); one patient vaccinated with GV1001, certain time points (FIG. 3)): even stronger than to the vaccine peptide itself | proliferative T-cell response (detected or not) (T cells (patient PBMCs); pancreas cancer patient vaccinated with DC/hTERT mRNA): Proliferative T-cell responses were detected | proliferative T-cell response (SI) (T cells (patient PBMCs); patient Colon ca P1, GV1001-vaccinated, clinical responder): 27.2 | proliferative T-cell response (SI) (T cells (patient PBMCs); patient Lung ca P1, GV1001-vaccinated, clinical non-responder, one time point): 1 | proliferative T-cell response (SI) (T cells (patient PBMCs); patient Lung ca P2, GV1001-vaccinated, clinical non-responder, one time point): 1.1 | proliferative T-cell response (SI) (T cells (patient PBMCs); patient Lung ca P3, GV1001-vaccinated, clinical non-responder, one time point): 0.9 | proliferative T-cell response (SI) (T cells (patient PBMCs); patient Lung ca P4, GV1001-vaccinated, clinical non-responder, one time point): 1.5 | proliferative T-cell response (SI) (T cells (patient PBMCs); patient Lung ca P5, GV1001-vaccinated, clinical responder): 44.5 | proliferative T-cell response (SI) (T cells (patient PBMCs); patient Lung ca P6, DC/hTERT mRNA-vaccinated, clinical responder, high background): 2.5 | proliferative T-cell response (SI) (T cells (patient PBMCs); patient Melanoma P1, GV1001-vaccinated, clinical non-responder, one time point): 1.6 | proliferative T-cell response (SI) (T cells (patient PBMCs); patient Melanoma P2, GV1001-vaccinated, clinical non-responder, one time point): 5.3 | proliferative T-cell response (SI) (T cells (patient PBMCs); patient Melanoma P3, GV1001-vaccinated, clinical non-responder, one time point): 0.3 | proliferative T-cell response (SI) (T cells (patient PBMCs); patient Melanoma P4, GV1001-vaccinated, clinical non-responder, one time point): 1 | proliferative T-cell response (SI) (T cells (patient PBMCs); patient Melanoma P5, GV1001-vaccinated, clinical non-responder, one time point): 1.9 | proliferative T-cell response (SI) (T cells (patient PBMCs); patient Melanoma P6, GV1001-vaccinated, clinical non-responder, one time point): 1.8 | proliferative T-cell response (SI) (T cells (patient PBMCs); patient Melanoma P7, GV1001-vaccinated, clinical responder): 44.5 | proliferative T-cell response (SI) (T cells (patient PBMCs); patient Melanoma P8, GV1001-vaccinated, clinical responder): 5.7 | proliferative T-cell response (SI) (T cells (patient PBMCs); patient Melanoma P9, non-vaccinated, spontaneous response): 6.9 | proliferative T-cell response (SI) (T cells (patient PBMCs); patient Pancreas ca P1, DC/hTERT mRNA-vaccinated, clinical responder, high background): 17.1 | immunological responses in clinical responders (T cells (patient PBMCs); patients responding / 7 clinical responders): 7/7 | immunological responses in clinical non-responders (T cells (patient PBMCs); patients responding / 10 clinical non-responders): 1/10 | response of clinical non-responders (T cells (patient PBMCs); six stage IV melanoma patients): very low or no response | patients with CTL responses shown by pentamer analysis [1]: Several | CD8+ T cell population after stimulation with peptide-loaded versus non-peptide loaded targets ([2]; pancreas cancer patient (data not shown)): no difference in the CD8+ T cell population | CD4+ T cells secreting IFN-γ, IL-4 and TNF-α ([2]; pancreas cancer patient, one round of in vitro stimulation, autologous EBV-transformed B-cells loaded with same peptide): small population of multifunctional CD4+ T cells | T-cell clones derived from the culture with the peptide that were specific (CD4+ T-cell clones; [3]): 75% | Specific clones (CD4+ T-cell clones; HLA class II allele DR*07, specificity printed as 'Part of 660-689', 1 patient, Schroers et al, 2003): 3 | Specific clones (CD4+ T-cell clones; HLA class II allele DR*14, 2 patients, lung cancer): 6 clones
